Assay results as given in US6376488B1, “Benzoxazine α-1 adrenergic compounds” (Abbott Laboratories, priority 2000, dated 2002).
Where a name gives a salt, the structure may show the parent alone.

`COc1cccc2c1N1CCN(CCCCn3c(=O)[nH]c4c(sc5ncccc54)c3=O)CC1CO2` (single isomer, unassigned; (-)) (as salt: hydrochloride) [Example 11, (−) 3-[4-(10-methoxy-1,2,4a,5-tetrahydropyrazino[2,1-c][1,4]benzoxazin-3(4H)-yl)butyl]pyrido[3′,2′:4.5]thieno[3,2-d]pyrimidine-2,4(1H,3H)-dione trihydrochloride] gave a melting point of 207 to 210 °C.
`COc1cccc2c1N1CCN(CCCCn3c(=O)[nH]c4c(sc5cccnc54)c3=O)CC1CO2` (single isomer, unassigned; (+)) (as salt: hydrochloride) [Example 14, (+) 3-[4-(10-methoxy-1,2,4a,5-tetrahydropyrazino[2,1-c][1,4]benzoxazin-3(4H)-yl)butyl]pyido [2′,3′:4,5]thieno[3,2-d]pyrimidine-2,4(1H,3H)-dione trihydrochloride] gave a melting point of 280 to 282 °C.
Molecule `O=c1[nH]c2c(sc3cccnc32)c(=O)n1CCCCN1CCN2c3ccccc3OCC2C1` (single isomer, unassigned; (-)) (as salt: hydrochloride) [Example 4, (−) 3-[4-(1.2,4a,5-tetrahydropyrazino[2,1-c][1,4benzoxazin-3(4H)-yl)butyl]pyrido[2′,3′:4,5]thieno[3,2-d]pyrimidine-2,4(1H,3H)-dione dihydrochloride] has a melting point of 282 to 284 °C.
